This is an account of results in US9777015B2, “Useful thiophene derivatives in the treatment of diabetes” (METABRAIN RESEARCH, priority 2012, dated 2017).

The test system of experiment [1] is isolated perfused pancreases of N0STZ diabetic rats. Put plainly: Insulin secretion in response to glucose at isolated perfused pancreases of N0STZ diabetic rats. The arrangement: species or system rat. The following applies: for Insulin secretion peak at G16.5 mM, Tested product: tested concentration 10 μM, glucose 16.5 mM, average +/- SEM. The method, then:
The pancreas was taken on rats made to be diabetic by injection of Streptozotocin on the day of birth and anesthetized with Pentobarbital (Nembutal©: 45 mg/kg; intraperitoneal route). These rats have a specific deficiency of the insulin response to glucose, as observed in humans with diabetes of type II. The isolation and the perfusion of the pancreas were achieved according to a modification of the procedure described by Sussman et al.. The effect of the compounds or reference substances is tested for 35 minutes (from t=20 min to t=55 min) in Krebs buffer in the absence (GO) or in the presence of glucose at 2.8 mM (G2.8 mM), and then 20 minutes (from t=55 min to t=75 min) in the presence of glucose 16.5 mM. The concentration of insulin secreted into the medium is measured by an Elisa assay (ELISA Alpco Cat no. 80-INSRTH-E10). The results are expressed as an average+/−SEM (Standard Error of the Mean) of several experiments.

A further experiment concerns INS-1 cells. The experiment in a line: Stimulation test of insulin secretion by INS-1 cells. The class given is cell-based. As to conditions: Rattus norvegicus, 1 h incubation, 3.5 mM glucose; for activity at 10 µM: INS1, compound at 10 μM, read-out: INS-1 % of ctrl @ 10 μM; for activity at 50 µM: INS1, compound at 50 μM, read-out: INS-1 % of ctrl @ 50 μM. The method, then: The different compounds were tested on an INS-1 beta-pancreatic line in order to evaluate their capability of potentializing the insulin secretion in response to glucose. Very briefly, the cells are cultivated in a culture medium, RPMI 1640 with 10 mM glucose containing 1 mM of sodium pyruvate, 50 μM of 2-mercaptoethanol, 2 mM of glutamine, 10 mM of HEPES, 100 IU/mL of penicillin, 100 μg/mL of streptomycin and 10% of inactivated fetal calf serum, as described by Asfari et al.. For the insulin secretion test, the INS-1 cells are sown and cultivated in 96-well plates. After 3 days of cultivation at 37° C. in a humid atmosphere (95% air/5% CO2), the medium is removed and the cells are incubated for 16 h in a medium containing 5 mM of glucose and 1% of inactivated fetal calf serum. On the day of the test, the cells are washed with a Krebs buffer (pH 7.4) containing 0.1% of bovine albumin and then pre-incubated for 30 min at 37° C. in this same buffer containing 2.8 mM of glucose. Finally, the cells are again washed with Krebs buffer and then incubated for 1 h in the buffer of the secretion test (Krebs, pH 7.4 containing 0.1% of bovine albumin and 3.5 mM of glucose and molecules to be evaluated). At the end of the test, the cell supernatant is recovered in order to measure therein the secreted insulin, by means of an ELISA kit using a rat anti-insulin antibody (ELISA Alpco Cat no. 80-INSRTH-E10). Each condition is tested in triplicate. The 3.5 mM glucose, the 10^−7M GLP-1 and the Forskoline 10^−7/IBMX 10^−5M mixtures are used as positive controls of the test. A compound stimulates the secretion of insulin if this factor is greater than or equal to 130% of the control for a given glucose dose.

For experiment [2], the system named is hepatocytes isolated from Wistar rat liver. The experiment in a line: Test of inhibition of hepatic production of glucose (isolated hepatocytes, 3 h or 20 h incubation). The format is cell-based. The following applies: for activity at 50 µM / activity at 100 µM: Rattus norvegicus, Hepatocyte; for activity at 50 µM: read-out: HGP % of ctrl @ 50 μM; for activity at 100 µM: read-out: HGP % of ctrl @ 100 μM. Summed up:
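Hepatocytes from 24 h-fasted Wistar rats were cultured overnight in glucose-free RPMI with hydrocortisone (7.10^−5M). Glucose production was run for 3 h in Krebs with lactate/pyruvate plus compounds (0.1% DMSO final), or after an added 20 h pretreatment during the RPMI culture. Supernatant glucose was measured by glucose oxidase and expressed per mg protein (Lowry).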

Where [3] appears, read: 20 h incubation, with two doses.
Setting [4] is: 3 h, hepatic glucose production, rat hepatocytes, 3 h incubation, compound at 50 μM.
Setting [5] is: 3 h, hepatic glucose production, rat hepatocytes, 3 h incubation, compound at 100 μM.
[6] abbreviates: 20 h, hepatic glucose production, rat hepatocytes, 20 h incubation, compound at 50 μM.
The mark [7] stands for this setting: 20 h, hepatic glucose production, rat hepatocytes, 20 h incubation, compound at 100 μM.

Like-named read-outs stand apart in the source and are kept apart here.

Take `CCOC(=O)Cc1cc(C(=O)c2ccc(OC)cc2)sc1-c1ccc(Cl)cc1` [compound 13, ethyl 2-(2-(4-chlorophenyl)-5-(4-methoxybenzoyl)thiophen-3-yl)acetate]: the “restoring insulin secretion in response to glucose” value in experiment [1] (isolated perfused pancreases of N0STZ diabetic rats) is listed as “strongest secretions”. In addition, the “Insulin secretion peak at G16.5 mM, Tested product” value in experiment [1] is 1 489 μU/min. The activity at 10 µM in the experiment with INS-1 cells stood at 155%. Besides, the “inhibition of hepatic production of glucose” value (“inhibition” below) in experiment [2] (setting [3]) is given as “strongest inhibitions”. The activity at 50 µM in experiment [2] (setting [4]) turned out to be 84%; in experiment [2] (setting [6]), 58%. Further, the activity at 100 µM in experiment [2] (setting [5]) is 69%; in experiment [2] (setting [7]), 35%.
With `CCOC(=O)Cc1cc(C(=O)c2ccccc2)sc1-c1ccc(OC)cc1` [compound 35, ethyl 2-(5-benzoyl-2-(4-methoxy-phenyl)thiophen-3-yl)acetate], in the experiment with INS-1 cells, the activity at 10 µM is 128% and the activity at 50 µM is 148%. For the same compound, the activity at 50 µM in experiment [2] (setting [6]) is 100%. The activity at 100 µM in experiment [2] (setting [7]) is 70%.
Consider `CC(C)OC(=O)Cc1cc(C(=O)c2ccco2)sc1-c1ccc(Cl)cc1` [compound 44, isopropyl 2-(2-(4-chlorophenyl)-5-(furan-2-carbonyl)thiophen-3-yl)acetate], for which the activity at 10 µM with INS-1 cells was 180%. The activity at 50 µM in the experiment on INS-1 cells stood at 223%; in experiment [2] (setting [4]), 83%; in experiment [2] (setting [6]) it was 71%. Besides, the results for the activity at 100 µM in experiment [2] (setting [5]) and in experiment [2] (setting [7]) were 69% and 61%, respectively.
For `O=C(O)Cc1cc(C(=O)C2CCCCC2)sc1-c1ccccc1` [compound 52, 2-(5-(cyclohexanecarbonyl)-2-phenylthiophen-3-yl)acetic acid], in the experiment with INS-1 cells, the activity at 10 µM was determined as 127% and the activity at 50 µM worked out at 140%. Moreover, in experiment [2] (setting [4]), the activity at 50 µM came to 61%. The activity at 100 µM in experiment [2] (setting [5]) was found to be 44%.
Consider `O=C(O)Cc1cc(C(=O)c2ccco2)sc1-c1ccc(Cl)cc1` [compound 56, 2-(2-(4-chlorophenyl)-5-(furan-2-carbonyl)thiophen-3-yl)acetic acid], for which the “Insulin secretion peak at G16.5 mM, Tested product” value in experiment [1] was determined as 845 ± 133 μU/min. Further, the “HGP % of ctrl @ 50 μM” value in experiment [2] (hepatic glucose production, rat hepatocytes, 3 h incubation, compound at 50 μM) is listed as 94 % of ctrl. Further, the “HGP % of ctrl @ 100 μM” value in experiment [2] (hepatic glucose production, rat hepatocytes, 3 h incubation, compound at 100 μM) is 70 % of ctrl.
`COc1ccc(C(=O)c2cc(CC(=O)OC(C)(C)C)c(-c3ccc(Cl)cc3)s2)cc1` [compound 84, tert-butyl 2-(2-(4-chlorophenyl)-5-(4-methoxybenzoyl)thiophen-3-yl)acetate]: in the experiment with INS-1 cells, the activity at 10 µM was 139%. Further, the activity at 50 µM came to 153% in the experiment on INS-1 cells and 85% in experiment [2] (setting [6]). For the same compound, the activity at 100 µM in experiment [2] (setting [7]) was determined as 40%.
With `CCOC(=O)Cc1cc(/C(=N/O)c2ccc(OC)cc2)sc1-c1ccc(Cl)cc1` [compound 104, ethyl 2-(2-(4-chlorophenyl)-5-((hydroxyimino)(4-methoxyphenyl)methyl)thiophen-3-yl)acetate], in the experiment on INS-1 cells, the activity at 10 µM came out at 153% and the activity at 50 µM was 203%. The activity at 50 µM in experiment [2] (setting [6]) turned out to be 76%. Besides, the activity at 100 µM in experiment [2] (setting [7]) worked out at 50%.
With `CCOC(=O)Cc1cc(C(=NOC)c2ccc(OC)cc2)sc1-c1ccc(Cl)cc1` [compound 106, ethyl 2-(2-(4-chlorophenyl)-5-((methoxyimino)(4-methoxyphenyl)methyl)thiophen-3-yl)acetate], in the experiment on INS-1 cells, the activity at 10 µM worked out at 148% and the activity at 50 µM was determined as 151%. Further, the activity at 50 µM in experiment [2] (setting [6]) was 74%. In addition, the activity at 100 µM in experiment [2] (setting [7]) was 45%.
On to `CCON=C(c1ccc(OC)cc1)c1cc(CC(=O)O)c(-c2ccc(Cl)cc2)s1` [compound 108, 2-(2-(4-chlorophenyl)-5-((ethoxyimino)(4-methoxyphenyl)methyl)thiophen-3-yl)acetic acid], for which the activity at 10 µM in the experiment with INS-1 cells was found to be 135%. Also, the activity at 50 µM in experiment [2] (setting [4]) was determined as 88%. Also, the activity at 100 µM in experiment [2] (setting [5]) was 26%.
Take `CCOC(=O)C(C)c1cc(C(=O)c2ccc(OC)cc2)sc1-c1ccc(Cl)cc1` (centres unmarked) [compound 123, ethyl 2-(2-(4-chlorophenyl)-5-(4-methoxybenzoyl)thiophen-3-yl)propanoate]: in the experiment with INS-1 cells, the activity at 10 µM turned out to be 168%. Besides, the activity at 50 µM with INS-1 cells amounted to 166%; in experiment [2] (setting [4]), 101%. For the same compound, the activity at 100 µM in experiment [2] (setting [5]) came to 63%.
Regarding `CCOC(=O)Cc1cc(C(=O)c2ccco2)sc1-c1cccc(F)c1F` [compound 130, ethyl 2-(2-(2,3-difluorophenyl)-5-(furan-2-carbonyl)thiophen-3-yl)acetate], in the experiment on INS-1 cells, the activity at 10 µM is 179% and the activity at 50 µM turned out to be 323%. Moreover, the “inhibition” value in experiment [2] (setting [3]) was “strongest inhibitions”. In addition, in experiment [2] (setting [6]), the activity at 50 µM came to 53%. In experiment [2] (setting [7]), the activity at 100 µM worked out at 40%.
For `O=C(O)Cc1cc(C(=O)c2ccco2)sc1-c1cccc(F)c1F` [compound 136, 2-(2-(2,3-difluorophenyl)-5-(furan-2-carbonyl)thiophen-3-yl) acetic acid], in the experiment on INS-1 cells, the activity at 10 µM is 120% and the activity at 50 µM worked out at 158%. Further, the activity at 50 µM in experiment [2] (setting [6]) came out at 64%. Further, in experiment [2] (setting [7]), the activity at 100 µM is 43%.
For the compound `CC(C)OC(=O)Cc1cc(C(=O)c2ccco2)sc1-c1ccc(Cl)cc1F` [compound 143, isopropyl 2-(2-(4-chloro-2-fluorophenyl)-5-(furan-2-carbonyl)thiophen-3-yl)acetate], in the experiment on INS-1 cells, the activity at 10 µM came to 127% and the activity at 50 µM was determined as 233%. In experiment [2] (setting [4]), the activity at 50 µM was 89%. For the same compound, the activity at 100 µM in experiment [2] (setting [5]) amounted to 72%.
Consider `COC(=O)Cc1cc(C(=O)c2ccccn2)sc1-c1ccc(Cl)cc1` [compound 148], for which, in the experiment with INS-1 cells, the activity at 10 µM is 134% and the activity at 50 µM was found to be 189%. Moreover, in experiment [2] (setting [4]), the activity at 50 µM worked out at 80%. For the same compound, in experiment [2] (setting [5]), the activity at 100 µM was 49%.
As for `CCOC(=O)Cc1cc(C(=O)c2ccc(Cl)cc2OC)sc1-c1ccc(Cl)cc1` [compound 155, ethyl 2-[5-(4-chloro-2-methoxy-benzoyl)-2-(4-chlorophenyl)-3-thienyl]acetate], the activity at 50 µM with INS-1 cells is 143%; in experiment [2] (setting [4]), 65%. In experiment [2] (setting [5]), the activity at 100 µM came out at 54%.
Regarding `CCOC(=O)Cc1cc(C(=O)c2ccco2)sc1-c1ccc(Cl)c(Cl)c1` [compound 158, ethyl 2-[2-(3,4-dichlorophenyl)-5-(furan-2-carbonyl)-3-thienyl]acetate], in the experiment with INS-1 cells, the activity at 10 µM came to 132% and the activity at 50 µM turned out to be 201%. The “inhibition” value in experiment [2] (3 h incubation, at the dose of 50 μM) is given as “strongest inhibitions”. Further, the activity at 50 µM in experiment [2] (setting [4]) was determined as 59%.
Turning to `COc1ccc(S(=O)(=O)c2cc(CC(=O)O)c(-c3ccc(Cl)c(Cl)c3)s2)cc1` [compound 175, 2-[2-(3,4-dichlorophenyl)-5-(4-methoxyphenyl)sulfonyl-3-thienyl]acetic acid], the activity at 10 µM in the experiment on INS-1 cells was 106%. Besides, the activity at 50 µM with INS-1 cells is 145%; in experiment [2] (setting [4]), 51%. Also, the “inhibition” value in experiment [2] (3 h incubation, with two doses) is “strongest inhibitions”. Besides, the activity at 100 µM in experiment [2] (setting [5]) was found to be 20%.
As for `CCOC(=O)Cc1cc(C(=O)c2ccc(Cl)o2)sc1-c1ccc(Cl)cc1` [compound 176, ethyl 2-[5-(5-chlorofuran-2-carbonyl)-2-(4-chlorophenyl)-3-thienyl]acetate], the activity at 10 µM with INS-1 cells was found to be 144%. For the same compound, the activity at 50 µM came to 246% with INS-1 cells and 76% in experiment [2] (setting [4]). Besides, the activity at 100 µM in experiment [2] (setting [5]) turned out to be 36%.
